Test results reported in patent US20100280084A1, “Cyp1B1 Genotype” (Government of the US, as represented by the Secret ary, …, priority 2005, published 2010).

Legend:
[1] = Docetaxel clearance as a function of CYP1B1*3 genotype in 23 patients; details: human, in vivo, P=0.39
Protocol: To exclude the possibility that the observed decreased survival time for subjects carrying the CYP1B1*3/*3 variant was the result of altered exposure to docetaxel, the pharmacokinetic data generated in a previous study (15) in 23 patients treated with docetaxel as a function of CYP1B1*3 genotype was analyzed.

[2] = test system: androgen-independent prostate cancer (AIPC); assay: Survival by CYP1B1*3 genotype in men with AIPC treated with docetaxel (Kaplan-Meier); assay type: in vivo, human; details: for overall median survival: docetaxel 30 mg/m^2 1-hour i.v. weekly for 3 weeks, 1-week rest
Protocol: FIG. 1 depicts Kaplan-Meier curves of overall survival (o-CYP1B1*3; *-CYP1B1*1/*1 and CYP1B1*1/*3) (A) and overall progression free survival (B) in men with prostate cancer treated with docetaxel as a function of CYP1B1*3 genotype. All patients received docetaxel as a 1-hour intravenous infusion at a dose of 30 mg/m^2 in cycles of once every week for 3 consecutive weeks, followed by a 1-week rest period (n=25). DNA was extracted from a […] using a QiaBlood extraction kit (Qiagen, Valencia, Calif.) and stored at 4° C. The CYP1B1*3 alleles were analyzed by direct sequencing. The primers used for sequencing and amplification of the variant were as follows: F4-[…]; R4-[…]; F5-[…]; R5-[…]. A 50-μl reaction was prepared for polymerase chain reaction (PCR) amplification using primers F4 and R4. The reaction consisted of 1×PCR buffer, 2 mM of each of the four deoxynucleotidetriphosphates (dNTPs), 1.5 mM magnesium chloride, and 1 unit of Platinum Taq DNA polymerase. PCR conditions were: 94° C. for 5 minutes, followed by 40 cycles of 94° C. for 30 seconds, 66° C. for 30 seconds, and 72° C. for 30 seconds, with a final 7-minute cycle at 72° C. Direct nucleotide sequencing PCR was conducted using the Big Dye Terminator Cycle Sequencing Ready Reaction kit V1.1 on an ABI Prism 310 Genetic Analyzer (Applied BioSystems, Foster City, Calif.).
The CYP1B1 genotypes on germline DNA obtained from 25 men with AIPC treated with docetaxel (Aventis Pharmaceuticals, Bridgewater, N.J.) were retrospectively evaluated. The subjects were administered docetaxel intravenously over 1-hour at a dose of 30 mg/m^2 in whom detailed survival data were available (Table 1). Inclusion and exclusion criteria have been previously published (12). The study protocol was approved by the Institutional Review Board (Bethesda, Md.), and all patients provided written informed consent. DNA was isolated from whole blood and variants in the CYP1B1 gene were analyzed by direct nucleotide sequencing (see Legend to FIG. 1). The association between genotypes and progression-free survival and overall survival was determined by the Kaplan-Meier method using a two-tailed log rank test. The homozygous wild-type (CYP1B1*1/*1) and heterozygous variant (CYP1B1*1/*3) genotypes were pooled in the analysis on the basis of similarity of outcomes. The associated p-value was adjusted to be two times the unadjusted value to account for the two implicit comparisons made in determining the desirability of combining groups. Progression was censored at the off study date if a patient was removed for toxicity or another reason.

[3] = test system: transfected Chinese hamster ovary cells; details: reversible by chemical inhibition (references 2, 3); cited from earlier work
[4] = biological target: T1, CYP1B1 (Homo sapiens, UniProt Q16678); details: previous preclinical studies (references 2, 3); cited from earlier work
T1 sequence (Q16678 1-543): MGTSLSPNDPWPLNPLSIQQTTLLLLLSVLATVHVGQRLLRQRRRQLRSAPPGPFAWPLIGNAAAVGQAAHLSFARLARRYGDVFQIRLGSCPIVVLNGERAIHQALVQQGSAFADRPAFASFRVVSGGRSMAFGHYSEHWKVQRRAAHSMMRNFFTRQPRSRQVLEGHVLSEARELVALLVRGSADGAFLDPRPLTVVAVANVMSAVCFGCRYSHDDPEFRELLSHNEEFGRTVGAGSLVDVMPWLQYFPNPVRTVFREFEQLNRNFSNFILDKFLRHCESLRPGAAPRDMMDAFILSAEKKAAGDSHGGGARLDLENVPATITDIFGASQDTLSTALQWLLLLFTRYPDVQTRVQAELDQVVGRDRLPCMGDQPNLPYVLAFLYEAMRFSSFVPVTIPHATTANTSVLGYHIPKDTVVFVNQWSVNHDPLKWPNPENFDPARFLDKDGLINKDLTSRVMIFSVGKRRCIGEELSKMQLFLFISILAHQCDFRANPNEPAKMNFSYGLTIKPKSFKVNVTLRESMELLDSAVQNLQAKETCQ

[5] = biological target: T1, CYP1B1; details: in vitro studies (reference 16); cited from earlier work

CC(=O)O[C@@]12CO[C@@H]1C[C@H](O)[C@@]1(C)C(=O)[C@H](O)C3=C(C)[C@@H](OC(=O)[C@H](O)[C@@H](NC(=O)OC(C)(C)C)c4ccccc4)C[C@@](O)([C@@H](OC(=O)c4ccccc4)[C@H]21)C3(C)C [docetaxel]
clearance ([1]; patients homozygous for the variant allele, 95% CI 26.9 to 37.0 L/h): 533 mL/min
clearance ([1]; patients homozygous or heterozygous for the wild-type allele, 95% CI 27.5 to 48.9 L/h): 637 mL/min
overall median survival ([2]; 5 patients homozygote variant (CYP1B1*3/*3)): 7.5 months
overall median survival ([2]; 7 wild type plus 13 heterozygotes (CYP1B1*1/*1 and *1/*3 pooled)): 15.3 months
progression free survival ([2]; CYP1B1*3/*3 variant, P=0.13 versus pooled genotypes): 3.3 months
decrease in median survival time ([2]; CYP1B1*3/*3 versus pooled wild type and heterozygotes, P=0.012): 7.8 months
progression free survival ([2]; pooled wild type and heterozygous genotypes, P=0.13 versus CYP1B1*3/*3): 6.2 months
effect of CYP1B1 overexpression on cellular sensitivity to docetaxel [3]: docetaxel resistance
inhibition of CYP1B1-mediated ethoxyresorufin O-deethylation [4]: competitively inhibits
metabolism by CYP1B1 [5]: not directly metabolized by CYP1B1
